From publication PMC4051630, “A Comparison of Protein Kinases Inhibitor Screening Methods Using Both Enzymatic Activity and Binding Affinity Determination” (PLoS ONE, 2014)

Key:
Assay in all cases: Differential Scanning Fluorimetry (DSF) Tm shift
Assay type in all cases: binding
[1] = target: T1, STK3 Catalytic domain+SARAH (Homo sapiens, UniProt Q13188); settings: 2 µM protein, 10 µM inhibitor, average of 3 experiments, each in duplicate
T1 construct: for 8, we also made a longer version containing one or more additional domains; His-tag; made in house; host or cells: Escherichia coli
T1 sequence (Q13188 1-491): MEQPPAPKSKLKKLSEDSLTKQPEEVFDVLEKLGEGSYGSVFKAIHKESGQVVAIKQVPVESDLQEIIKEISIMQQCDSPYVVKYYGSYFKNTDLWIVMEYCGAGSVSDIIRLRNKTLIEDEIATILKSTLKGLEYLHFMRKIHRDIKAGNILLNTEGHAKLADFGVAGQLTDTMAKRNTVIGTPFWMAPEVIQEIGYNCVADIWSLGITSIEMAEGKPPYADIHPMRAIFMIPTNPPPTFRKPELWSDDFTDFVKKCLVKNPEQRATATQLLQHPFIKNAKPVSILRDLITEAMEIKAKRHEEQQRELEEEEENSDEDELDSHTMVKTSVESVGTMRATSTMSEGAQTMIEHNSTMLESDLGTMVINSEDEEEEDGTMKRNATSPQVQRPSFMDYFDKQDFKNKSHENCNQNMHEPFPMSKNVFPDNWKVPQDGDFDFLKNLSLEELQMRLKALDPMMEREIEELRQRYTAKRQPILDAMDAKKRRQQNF

[2] = target: T2, STK3 Catalytic Domain (Homo sapiens, UniProt Q13188); settings: 2 µM protein, 10 µM inhibitor, average of 3 experiments, each in duplicate
T2 construct: For all of them, we expressed and purified the catalytic domain separately; His-tag; made in house; host or cells: Escherichia coli
T2 sequence (Q13188 27-278 limits assumed): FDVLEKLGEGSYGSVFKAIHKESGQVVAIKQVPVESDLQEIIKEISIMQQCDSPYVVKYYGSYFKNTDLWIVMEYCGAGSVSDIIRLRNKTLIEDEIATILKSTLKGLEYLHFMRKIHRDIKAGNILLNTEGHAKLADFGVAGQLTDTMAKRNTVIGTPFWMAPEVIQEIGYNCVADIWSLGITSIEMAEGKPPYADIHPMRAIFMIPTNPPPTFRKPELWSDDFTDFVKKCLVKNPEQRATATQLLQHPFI

[3] = target: T3, FES Catalytic Domain+SH2 (Homo sapiens, UniProt P07332); settings: 2 µM protein, 10 µM inhibitor, average of 3 experiments, each in duplicate
T3 construct: for 8, we also made a longer version containing one or more additional domains; His-tag; made in house; host or cells: Escherichia coli

[4] = target: T4, PAK7 Catalytic Domain (Homo sapiens, UniProt Q9P286); settings: 2 µM protein, 10 µM inhibitor, average of 3 experiments, each in duplicate
T4 construct: For all of them, we expressed and purified the catalytic domain separately; His-tag; made in house; host or cells: Escherichia coli

[5] = target: T5, CHK2 Catalytic Domain (Homo sapiens, UniProt O96017); settings: 2 µM protein, 10 µM inhibitor, average of 3 experiments, each in duplicate
T5 construct: For all of them, we expressed and purified the catalytic domain separately; His-tag; made in house; host or cells: Escherichia coli

[6] = target: SRC Catalytic Domain+SH2+SH3 (Homo sapiens, UniProt P12931); settings: 2 µM protein, 10 µM inhibitor, average of 3 experiments, each in duplicate
[7] = target: T6, PAK4 Catalytic Domain (Homo sapiens, UniProt O96013); settings: 2 µM protein, 10 µM inhibitor, average of 3 experiments, each in duplicate
T6 construct: For all of them, we expressed and purified the catalytic domain separately; His-tag; made in house; host or cells: Escherichia coli

[8] = target: SRC Catalytic Domain (Homo sapiens, UniProt P12931); design: For all of them, we expressed and purified the catalytic domain separately; His-tag; made in house; host or cells: Escherichia coli; settings: 2 µM protein, 10 µM inhibitor, average of 3 experiments, each in duplicate
[9] = target: T7, DMPK Catalytic Domain (Homo sapiens, UniProt Q09013); settings: 2 µM protein, 10 µM inhibitor, average of 3 experiments, each in duplicate
T7 construct: For all of them, we expressed and purified the catalytic domain separately; His-tag; made in house; host or cells: Escherichia coli
T7 sequence (Q09013 71-339 limits assumed): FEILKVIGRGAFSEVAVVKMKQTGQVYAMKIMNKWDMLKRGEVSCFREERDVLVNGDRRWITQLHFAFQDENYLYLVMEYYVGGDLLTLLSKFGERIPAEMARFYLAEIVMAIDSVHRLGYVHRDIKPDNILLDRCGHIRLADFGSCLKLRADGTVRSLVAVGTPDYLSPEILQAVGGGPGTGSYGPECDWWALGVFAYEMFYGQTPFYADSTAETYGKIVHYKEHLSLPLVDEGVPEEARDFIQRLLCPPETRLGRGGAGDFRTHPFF

[10] = target: T8, PAK4 Catalytic Domain+PBD (Homo sapiens, UniProt O96013); settings: 2 µM protein, 10 µM inhibitor, average of 3 experiments, each in duplicate
T8 construct: for 8, we also made a longer version containing one or more additional domains; His-tag; made in house; host or cells: Escherichia coli

[11] = target: T9, FAK2 Catalytic Domain (Homo sapiens, UniProt Q14289); settings: 2 µM protein, 10 µM inhibitor, average of 3 experiments, each in duplicate
T9 construct: For all of them, we expressed and purified the catalytic domain separately; His-tag; made in house; host or cells: Escherichia coli

[12] = target: T10, FES Catalytic Domain (Homo sapiens, UniProt P07332); settings: 2 µM protein, 10 µM inhibitor, average of 3 experiments, each in duplicate
T10 construct: For all of them, we expressed and purified the catalytic domain separately; His-tag; made in house; host or cells: Escherichia coli

[13] = target: T11, CDK2 + Cyclin A (Homo sapiens, UniProt P24941); settings: CDK2 + Cyclin A; 2 µM protein, 10 µM inhibitor; average of 3 experiments, each in duplicate
T11 construct: CDK2 (P24941); 1–299; His-tag; made in house; host or cells: Escherichia coli

[14] = target: T12, AKT3 Catalytic Domain (Homo sapiens, UniProt Q9Y243); settings: 2 µM protein, 10 µM inhibitor, average of 3 experiments, each in duplicate
T12 construct: AKT3 (Q9Y243); CD; His-tag; made in house; host or cells: Escherichia coli

[15] = target: T13, CDK2 + Cyclin E (Homo sapiens, UniProt P24941); settings: CDK2 + Cyclin E; 2 µM protein, 10 µM inhibitor; average of 3 experiments, each in duplicate
T13 construct: CDK2 (P24941); 1–299; His-tag; made in house; host or cells: Escherichia coli

T12 sequence (Q9Y243 122-479): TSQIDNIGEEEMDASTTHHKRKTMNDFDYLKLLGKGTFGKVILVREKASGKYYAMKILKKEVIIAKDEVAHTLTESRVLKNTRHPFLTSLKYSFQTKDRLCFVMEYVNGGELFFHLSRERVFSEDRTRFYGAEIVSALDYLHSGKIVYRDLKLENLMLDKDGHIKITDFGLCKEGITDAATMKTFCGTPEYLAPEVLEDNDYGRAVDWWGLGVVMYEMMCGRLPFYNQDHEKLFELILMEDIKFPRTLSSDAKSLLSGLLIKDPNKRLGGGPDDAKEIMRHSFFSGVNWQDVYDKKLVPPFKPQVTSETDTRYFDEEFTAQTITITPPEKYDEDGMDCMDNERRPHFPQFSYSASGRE
T6 sequence (O96013 321-572 limits assumed): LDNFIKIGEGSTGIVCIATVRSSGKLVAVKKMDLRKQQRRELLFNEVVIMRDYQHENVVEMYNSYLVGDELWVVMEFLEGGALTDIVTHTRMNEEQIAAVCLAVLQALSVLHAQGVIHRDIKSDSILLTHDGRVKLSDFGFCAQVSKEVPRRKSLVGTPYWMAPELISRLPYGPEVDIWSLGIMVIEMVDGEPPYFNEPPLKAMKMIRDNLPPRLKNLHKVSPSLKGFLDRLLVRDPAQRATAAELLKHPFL
T4 sequence (Q9P286 449-700 limits assumed): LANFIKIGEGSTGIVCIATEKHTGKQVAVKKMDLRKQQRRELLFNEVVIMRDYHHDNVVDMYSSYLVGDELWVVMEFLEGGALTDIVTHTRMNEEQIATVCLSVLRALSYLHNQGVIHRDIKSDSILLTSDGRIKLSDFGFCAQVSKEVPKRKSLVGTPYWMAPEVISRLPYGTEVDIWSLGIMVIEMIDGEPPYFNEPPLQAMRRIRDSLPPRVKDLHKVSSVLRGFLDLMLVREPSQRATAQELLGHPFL
T8 sequence (O96013 whole entry, the tested form may be a part): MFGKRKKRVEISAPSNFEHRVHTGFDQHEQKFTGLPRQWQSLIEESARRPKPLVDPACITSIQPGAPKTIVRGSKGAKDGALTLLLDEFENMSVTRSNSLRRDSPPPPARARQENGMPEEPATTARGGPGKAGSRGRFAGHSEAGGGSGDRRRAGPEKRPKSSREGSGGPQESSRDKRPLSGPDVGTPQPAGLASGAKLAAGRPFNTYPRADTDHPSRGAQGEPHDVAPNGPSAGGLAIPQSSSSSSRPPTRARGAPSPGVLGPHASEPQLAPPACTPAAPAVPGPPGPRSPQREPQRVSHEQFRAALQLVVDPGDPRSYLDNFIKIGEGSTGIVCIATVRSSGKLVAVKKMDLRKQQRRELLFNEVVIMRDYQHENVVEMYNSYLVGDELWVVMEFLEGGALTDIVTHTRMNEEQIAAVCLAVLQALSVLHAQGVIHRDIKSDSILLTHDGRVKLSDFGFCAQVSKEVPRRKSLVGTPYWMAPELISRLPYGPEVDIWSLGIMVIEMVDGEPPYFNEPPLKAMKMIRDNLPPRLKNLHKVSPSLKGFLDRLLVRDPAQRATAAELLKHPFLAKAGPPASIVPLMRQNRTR
T10 sequence (P07332 561-822 limits assumed): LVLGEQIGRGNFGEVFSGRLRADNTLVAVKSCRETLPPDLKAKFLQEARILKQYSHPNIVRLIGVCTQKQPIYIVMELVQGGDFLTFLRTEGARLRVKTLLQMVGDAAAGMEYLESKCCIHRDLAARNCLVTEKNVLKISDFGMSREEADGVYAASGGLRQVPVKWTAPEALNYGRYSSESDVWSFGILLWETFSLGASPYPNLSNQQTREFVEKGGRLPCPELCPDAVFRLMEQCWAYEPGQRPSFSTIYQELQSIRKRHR
Sequence of SRC Catalytic Domain+SH2+SH3 (P12931 84-523 limits assumed): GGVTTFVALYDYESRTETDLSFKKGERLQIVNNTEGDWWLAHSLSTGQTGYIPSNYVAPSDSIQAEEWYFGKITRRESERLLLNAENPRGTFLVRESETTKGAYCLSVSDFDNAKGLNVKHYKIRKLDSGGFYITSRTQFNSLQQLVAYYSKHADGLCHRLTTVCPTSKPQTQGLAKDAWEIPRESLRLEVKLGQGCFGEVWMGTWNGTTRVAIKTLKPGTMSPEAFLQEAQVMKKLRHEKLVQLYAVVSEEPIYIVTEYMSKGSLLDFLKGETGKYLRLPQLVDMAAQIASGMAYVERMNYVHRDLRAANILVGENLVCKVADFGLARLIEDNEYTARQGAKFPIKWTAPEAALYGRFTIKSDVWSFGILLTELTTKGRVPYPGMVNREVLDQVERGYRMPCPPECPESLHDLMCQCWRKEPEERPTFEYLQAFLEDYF
T5 sequence (O96017 220-486 limits assumed): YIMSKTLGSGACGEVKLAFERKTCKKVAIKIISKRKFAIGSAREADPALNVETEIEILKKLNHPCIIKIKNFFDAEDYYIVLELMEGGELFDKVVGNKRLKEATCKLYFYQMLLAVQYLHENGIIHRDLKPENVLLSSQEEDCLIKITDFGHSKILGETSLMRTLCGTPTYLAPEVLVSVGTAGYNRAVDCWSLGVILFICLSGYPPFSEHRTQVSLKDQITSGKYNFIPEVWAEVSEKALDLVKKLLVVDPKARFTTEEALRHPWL
T9 sequence (Q14289 425-683 limits assumed): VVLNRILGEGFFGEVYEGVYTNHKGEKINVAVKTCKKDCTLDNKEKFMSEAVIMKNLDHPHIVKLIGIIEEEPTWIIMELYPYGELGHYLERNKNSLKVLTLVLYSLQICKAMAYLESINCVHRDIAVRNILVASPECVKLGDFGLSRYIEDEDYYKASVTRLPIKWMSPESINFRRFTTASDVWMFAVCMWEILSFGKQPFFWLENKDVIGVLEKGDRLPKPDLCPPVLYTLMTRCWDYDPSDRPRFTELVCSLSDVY
T3 sequence (P07332 448-822 limits assumed): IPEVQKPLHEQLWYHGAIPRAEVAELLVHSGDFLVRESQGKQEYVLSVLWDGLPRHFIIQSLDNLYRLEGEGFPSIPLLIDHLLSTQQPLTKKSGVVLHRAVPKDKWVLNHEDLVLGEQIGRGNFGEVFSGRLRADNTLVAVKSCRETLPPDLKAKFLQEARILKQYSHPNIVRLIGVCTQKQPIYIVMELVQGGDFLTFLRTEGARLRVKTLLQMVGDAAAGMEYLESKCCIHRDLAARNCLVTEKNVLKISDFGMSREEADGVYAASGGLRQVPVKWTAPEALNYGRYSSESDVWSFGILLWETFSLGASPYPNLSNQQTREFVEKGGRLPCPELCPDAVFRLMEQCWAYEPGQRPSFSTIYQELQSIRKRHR
Sequence of SRC Catalytic Domain (P12931 270-523 limits assumed): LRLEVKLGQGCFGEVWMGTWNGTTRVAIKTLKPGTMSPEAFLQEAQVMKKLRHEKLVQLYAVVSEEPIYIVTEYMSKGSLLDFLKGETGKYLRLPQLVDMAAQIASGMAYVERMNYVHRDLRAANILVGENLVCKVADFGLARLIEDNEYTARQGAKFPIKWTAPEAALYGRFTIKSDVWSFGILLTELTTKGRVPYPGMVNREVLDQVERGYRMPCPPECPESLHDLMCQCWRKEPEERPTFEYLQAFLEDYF

SMILES	Melting temperature (Tm) shift [1] [degrees Celcius]	Melting temperature (Tm) shift [2] [degrees Celcius]	Melting temperature (Tm) shift [3] [degrees Celcius]	Melting temperature (Tm) shift [4] [degrees Celcius]	Melting temperature (Tm) shift [5] [degrees Celcius]	Melting temperature (Tm) shift [6] [degrees Celcius]	Melting temperature (Tm) shift [7] [degrees Celcius]	Melting temperature (Tm) shift [8] [degrees Celcius]	Melting temperature (Tm) shift [9] [degrees Celcius]	Melting temperature (Tm) shift [10] [degrees Celcius]	Melting temperature (Tm) shift [11] [degrees Celcius]	Melting temperature (Tm) shift [12] [degrees Celcius]	Melting temperature (Tm) shift [13] [degrees Celcius]	Melting temperature (Tm) shift [14] [degrees Celcius]	Melting temperature (Tm) shift [15] [degrees Celcius]
Cc1nc(N)sc1-c1ccnc(Nc2cccc([N+](=O)[O-])c2)n1 [Cdk2/9 Inhibitor]	0.4	0.7	0.1	0.3	1.8	0.6	0.7	0.5	0.4	2.0	0.5	0.3	–	–	–
Nc1ncnc2c1c(I)cn2[C@@H]1O[C@H](CO)[C@@H](O)[C@H]1O [5-Iodotubercidin]	1.5	3.0	0.0	0.4	0.6	0.1	0.7	–	0.2	0.7	0.4	1.0	2.5	0.0	1.3
CCCC(=O)Oc1ccc2[nH]c(C(=O)c3cc4ccccc4[nH]3)cc2c1	1.2	0.5	0.1	0.1	1.4	0.6	0.0	1.1	–	–	0.3	0.3	–	–	–
Nc1ncnc2c1c(-c1ccc(Oc3ccccc3)cc1)cn2C1CCCC1 [Lck Inhibitor]	0.2	1.3	0.3	0.0	2.2	6.4	–	9.4	–	–	–	0.7	–	–	–
N#CC(c1ccnc(NCCc2cccnc2)n1)c1nc2ccccc2s1 (centres unmarked) [JNK Inhibitor V]	0.3	0.2	0.0	0.0	0.3	0.1	0.1	–	0.8	0.1	0.4	–	0.2	0.0	0.3
CN1C(=O)C(=C2Nc3ccccc3C2=NO)c2ccc(Br)cc21 [GSK-3 Inhibitor IX, Control, MeBIO]	0.4	0.1	–	0.0	–	0.0	0.0	0.0	–	0.3	0.1	–	–	–	–
Cl.Cl.O=S(=O)(NCCNC/C=C/c1ccc(Br)cc1)c1cccc2cnccc12 [H-89, Dihydrochloride]	0.4	0.0	0.2	0.3	0.5	0.0	0.4	–	0.0	0.0	0.8	0.4	0.5	0.3	0.3
Cl.NCCCn1cc(C2=C(c3c[nH]c4ccccc34)C(=O)NC2=O)c2ccccc21 [Bisindolylmaleimide III, Hydrochloride]	4.6	1.8	0.5	1.1	5.6	0.0	1.4	–	4.2	1.6	0.7	0.8	2.1	0.6	0.7
COc1cc2nccc(Oc3ccc(NC(=S)NC(=O)c4ccccc4C)cc3)c2cc1OC [PDGF RTK Inhibitor]	0.0	1.7	1.5	–	7.6	3.9	–	5.9	–	–	1.0	1.6	–	–	–
